Reference: publication PMC12473123, “Structure–Function Insights into Quinuclidine-3-One BisQACs: Synthesis, Modulation of Bacterial Resistance, Structure–Activity Relationship, and Biological Profiling” (Pharmaceuticals, 2025)

Experiments:
[1] = tested on: Staphylococcus aureus ATCC 25923; test: Broth microdilution MIC; format: cell-based; conditions: for MIC: Staphylococcus aureus, ATCC25923, read-out: Minimum Inhibitory Concentrations (MIC)
[2] = tested on: Staphylococcus aureus ATCC 33591 (methicillin-resistant); test: Broth microdilution MIC; format: cell-based; conditions: Staphylococcus aureus, ATCC33591, read-out: Minimum Inhibitory Concentrations (MIC)
[3] = tested on: Staphylococcus aureus Clinical/MRSA; test: Broth microdilution MIC; format: cell-based; conditions: Staphylococcus aureus, MRSA, read-out: Minimum Inhibitory Concentrations (MIC)
[4] = tested on: Listeria monocytogenes ATCC 7644; test: Broth microdilution MIC; format: cell-based; conditions: for MIC: Listeria monocytogenes, ATCC7644, read-out: Minimum Inhibitory Concentrations (MIC), Listeria monocytogenes ATCC 7644
[5] = tested on: Escherichia coli ATCC 25922; test: Broth microdilution MIC; format: cell-based; conditions: Escherichia coli, ATCC25922, read-out: Minimum Inhibitory Concentrations (MIC)
[6] = tested on: Salmonella enterica (food isolate); test: Broth microdilution MIC; format: cell-based; conditions: read-out: Minimum Inhibitory Concentrations (MIC)
[7] = tested on: Staphylococcus aureus ATCC 25923; test: Biofilm inhibition assay (crystal violet); format: cell-based
Protocol: (§1) The ability of the candidate compounds to inhibit biofilm formation was evaluated by determining the minimum biofilm inhibitory concentration (MBIC) against the biofilm-forming strains Staphylococcus aureus ATCC 25923 and Listeria monocytogenes ATCC 7644. Overnight bacterial cultures were diluted in fresh, pre-warmed Mueller–Hinton broth (MHB) and incubated at 37 °C with constant shaking at 220 rpm. Once the cultures reached the exponential growth phase (OD600 = 0.3–0.5), they were standardized to a final concentration of 4 × 10^6 CFU/mL.
(§2) Plates were incubated at 37 °C for 24 to 48 h, depending on the bacterial strain. After incubation, the planktonic cells were carefully aspirated to preserve the integrity of the biofilm layer. Wells were gently rinsed with sterile ultrapure Milli-Q water and air-dried at 60 °C for 1 h to fix the biofilms. Biofilm formation was quantified using a crystal violet (CV) staining method. Wells were stained with 100 µL of 0.1% CV solution and incubated at room temperature for 1 h. Excess dye was removed by rinsing with sterile ultrapure Milli-Q water, followed by air-drying. Bound CV was solubilized with 100 µL of 70% ethanol and incubated for 30 min. The solubilized dye was transferred to a fresh plate, and absorbance was measured at 595 nm using a microplate reader (Bio-Tek EL808, Winooski, VT, USA). Absorbance values were directly proportional to biofilm biomass. Untreated bacterial cultures served as positive controls for biofilm formation, while sterile MHB served as the negative control.

[8] = tested on: Listeria monocytogenes ATCC 7644; test: Biofilm inhibition assay (crystal violet); format: cell-based; conditions: Listeria monocytogenes, ATCC7644, read-out: biofilm inhibition
Protocol: as §1
as §2, with “Aliquots (50 µL) of the standardized bacterial suspension were inoculated into 96-well microtiter plates containing the test compounds at final concentrations of 100, 50, 25, and 12.5 µg/mL. Plates” for “Plates”

[9] = tested on: Staphylococcus aureus ATCC 25923; test: Time-kill kinetics assay; format: cell-based
Protocol: To assess the temporal dynamics of bacterial viability upon exposure to the test compounds, a time-kill kinetics assay was performed using the Gram-positive reference strain Staphylococcus aureus ATCC 25923. An overnight culture of the strain was subcultured into fresh, pre-warmed Mueller–Hinton broth (MHB) and incubated under aerobic conditions at 37 °C with agitation (220 rpm) until reaching the early exponential growth phase. The bacterial suspension was then standardized to an initial concentration of approximately 5 × 10^5 CFU/mL. […] Wells containing untreated bacterial cultures served as growth controls. Immediately after mixing, a 10 µL sample from each well was withdrawn, diluted in 990 µL of MHB, and serially diluted tenfold up to 10^−6. From each dilution, 20 µL was plated on MHB agar using a sterile loop to determine the initial bacterial count (time zero). The treated plates were incubated at 37 °C, and additional samples were collected at predetermined time points (2, 4, 6, 8, 12, and 24 h) following the same dilution and plating protocol. After 24 h of incubation at 37 °C, colonies were counted, and viable bacterial counts were expressed as log10 CFU/mL for each time point. Bactericidal activity was evaluated by plotting the log10 CFU/mL over time, providing a dynamic profile of the compound’s killing kinetics.

HEK293 cells = test: Cytotoxicity MTS assay; format: cell-based, human; conditions: Homo sapiens, HEK293, 48 h, read-out: IC50 HEK293
Protocol: (§3) The cytotoxic potential of the selected drug candidates was evaluated using the CellTiter 96® AQueous One Solution Cell Proliferation Assay (Promega, Madison, WI, USA), following the manufacturer’s protocol. Human cell lines RPE1 and HEK293 were cultured at 37 °C in a humidified incubator with 5% CO2. Test compounds were dissolved in the appropriate growth medium and serially diluted across a range of concentrations in 96-well microtiter plates. Each well was seeded with 5000 cells and incubated for 48 h under standard culture conditions. Following this incubation period, 20 µL of MTS reagent was added to each well, and the plates were further incubated for 3 h to allow for color development. Absorbance was measured at 490 nm using a microplate reader to determine cell viability. Cytotoxicity was quantified as the half-maximal inhibitory concentration (IC50), defined as the concentration of compound that reduced cell viability by 50%. […] IC50 values were calculated using GraFit 6.0 software by plotting compound concentration against absorbance and fitting the data to a sigmoidal dose–response curve.

RPE1 cells = test: Cytotoxicity MTS assay; format: cell-based, human; conditions: Homo sapiens, RPE-1, 48 h, read-out: IC50 RPE1
Protocol: as §3

[10] = S. aureus ATCC 25923, 6.25 µg/mL
[11] = S. aureus ATCC 25923, 12.5 µg/mL
[12] = S. aureus ATCC 25923, 100 µg/mL

Structure (SMILES) | MIC [1] [µM] | MIC [2] [µM] | MIC [3] [µM] | MIC [4] [µM] | MIC [5] [µM] | MIC [6] [µM] | biofilm inhibition [7, 10] [%] | biofilm inhibition [7, 11] [%] | biofilm inhibition ([7]; S. aureus ATCC 25923, 25 µg/mL) [%] | biofilm inhibition ([7]; S. aureus ATCC 25923, 50 µg/mL) | biofilm inhibition [7, 12] | inhibition at 6.25 µg/mL [8] [%] | inhibition at 12.5 µg/mL [8] [%] | inhibition at 25 µg/mL [8] [%] | inhibition at 50 µg/mL [8] [%] | inhibition at 100 µg/mL [8] [%] | IC50 (HEK293 cells) [µM] | IC50 (RPE1 cells) [µM] | other results
CCCCCCCCCCCCCCCCNC1C[N+]2(CCC[N+]34CCC(CC3)C(NCCCCCCCCCCCCCCCC)C4)CCC1CC2 (racemic) [2(QC16)3, (±)-1,1′-(Propane-1,3-diyl) bis(3-(hexadecylamino)quinuclidinium) dibromide] | 38 | 19 | > 75 | 9 | > 75 | > 75 | > 2 | 11 | > 80 | exceeding 90% | exceeding 90% | 91 | 93 | 94 | 94 | 97 | 21 | 69 | time to rapid bactericidal activity ([9]; S. aureus ATCC 25923): ≤ 3 h; time to complete killing ([9]; S. aureus ATCC 25923, 2 × MIC): 2 h
CCCCCCCCCCCCCCCCNC1C[N+]2(CCCCCC[N+]34CCC(CC3)C(NCCCCCCCCCCCCCCCC)C4)CCC1CC2 (racemic) [2(QC16)6, (±)-1,1′-(Hexane-1,6-diyl) bis(3-(hexadecylamino)quinuclidinium) dibromide] | 9 | 5 | 38 | 38 | 19 | 75 | 6 | > 30 | > 80 | > 90% | 95% | 40 | 69 | 81 | 88 | 89 | 7 | 5 | Minimum Inhibitory Concentrations (MIC) ([1]; Staphylococcus aureus ATCC 25923): 9 µM; Minimum Inhibitory Concentrations (MIC) ([4]; Listeria monocytogenes ATCC 7644): 19 µM; time to complete eradication / elimination of viable cells (CFU) ([9]; S. aureus ATCC 25923): ≤ 2 h
